Test results: BindingDB's records for doi:10.1016/j.ejmech.2012.08.033 (2012)

Target: Casein kinase I isoform alpha (Homo sapiens, UniProt P48729)
Test: Inhibition of CK1 after 30 mins by liquid scintillation counter

Sequence of Casein kinase I isoform alpha (P48729 whole entry, canonical isoform): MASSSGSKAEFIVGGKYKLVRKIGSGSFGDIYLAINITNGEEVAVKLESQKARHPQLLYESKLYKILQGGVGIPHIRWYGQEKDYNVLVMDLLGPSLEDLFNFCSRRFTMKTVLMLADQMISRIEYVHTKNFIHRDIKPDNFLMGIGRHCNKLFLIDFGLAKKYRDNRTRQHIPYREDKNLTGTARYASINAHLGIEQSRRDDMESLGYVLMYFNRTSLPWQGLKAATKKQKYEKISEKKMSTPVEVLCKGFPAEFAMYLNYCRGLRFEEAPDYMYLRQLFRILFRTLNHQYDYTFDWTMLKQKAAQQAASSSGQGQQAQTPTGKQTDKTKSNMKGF

For CC(C)n1cnc2c(NCc3ccc(-c4ccccn4)cc3)nc(N3C[C@H](O)C[C@H]3CO)nc21, the IC50 was 390 nM.
With CC(C)[C@H](N)C(=O)OC[C@H](O)CNc1nc(NCc2ccc(-c3ccccn3)cc2)c2ncn(C(C)C)c2n1 the IC50 was 150 nM.
Work on CC(C)n1cnc2c(NCc3ccc(-c4ccccn4)cc3)nc(NC[C@@H](O)CO)nc21 yielded an IC50 of 180 nM.
In the case of CC(C)n1cnc2c(NCc3ccc(-c4ccccn4)cc3)nc(NCC[C@H](O)CO)nc21, the IC50 is reported as 660 nM.
